Molecules are shown by their SMILES. Read-outs that look alike come from different tables or passages of the source.

The conditions of data set [1]: rcm bond.
The conditions of data set [2]: from C=CCOC1(C)CCN(c2c([C@H](OC(C)(C)C)C(=O)OC)c(C)nc3cc(-c4cccc(-c5cc(CC)ccc5O[C@@H](C)CC=C)c4)nn23)CC1; rcm bond; 20-membered ring; Hoveyda-Grubbs II (name truncated)/CuI; DCE; 1.09 mM; 3.0 h.
The subject of data set [3] is NL-RLuc virus. In words: Inhibition of HIV replication (NL-RLuc luciferase reporter virus in MT-2 cells). In kind it is cell-based. As to conditions: Human immunodeficiency virus 1, MT2, 120 h. A general note: In a reporter assay the amount or activity of a reporter protein is the signal.

Compound `CCOC(=O)[C@@H](OC(C)(C)C)c1c(C)nc2cc3nn2c1N1CCC(C)(CC1)OC/C=C/C(C)Oc1cc(F)ccc1-c1cccc-3c1` (stereo partly drawn) yielded a ring closure, isolated yield in data set [1] (from C=CCOC1(C)CCN(c2c([C@H](OC(C)(C)C)C(=O)OCC)c(C)nc3cc(-c4cccc(-c5ccc(F)cc5O[C@@H](C)C=C)c4)nn23)CC1, 19-membered ring, Grubbs II (0.1 eq)/CuI, DCE, 1.27 mM, 2.0 h) of 96%.
`CCOC(=O)[C@@H](OC(C)(C)C)c1c(C)nc2cc3nn2c1N1CCC(C)(CC1)OC/C=C/[C@H](C)Oc1cc(C)cc(F)c1-c1cccc-3c1` registered a ring closure, isolated yield in data set [1] (from C=CCOC1(C)CCN(c2c([C@H](OC(C)(C)C)C(=O)OCC)c(C)nc3cc(-c4cccc(-c5c(F)cc(C)cc5O[C@@H](C)C=C)c4)nn23)CC1, 19-membered ring, Grubbs II (0.1 eq)/CuI, DCE, 1.09 mM, 2.0 h) of 72%.
`CCOC(=O)[C@@H](OC(C)(C)C)c1c(C)nc2cc3nn2c1N1CCC(C)(CC1)OC/C=C/[C@H](C)Oc1cc(C)ccc1-c1cccc-3c1`: in data set [1] (from C=CCOC1(C)CCN(c2c([C@H](OC(C)(C)C)C(=O)OCC)c(C)nc3cc(-c4cccc(-c5ccc(C)cc5O[C@@H](C)C=C)c4)nn23)CC1, 19-membered ring, Grubbs II (0.1 eq)/CuI, DCE, 1.32 mM, 2.0 h), the ring closure, isolated yield was 69.5%.
Regarding `CCOC(=O)[C@@H](OC(C)(C)C)c1c(C)nc2cc3nn2c1N1CCC(C)(CC1)OC/C=C/[C@H](C)Oc1ccc(C)c(F)c1-c1cccc-3c1`, in data set [1] (from C=CCOC1(C)CCN(c2c([C@H](OC(C)(C)C)C(=O)OCC)c(C)nc3cc(-c4cccc(-c5c(O[C@@H](C)C=C)ccc(C)c5F)c4)nn23)CC1, 19-membered ring, Grubbs II (0.1 eq)/CuI, DCE, 1.33 mM, 2.0 h), the ring closure, isolated yield came to 94%.
The compound `CCOC(=O)[C@@H](OC(C)(C)C)c1c(C)nc2cc3nn2c1N1CCC(C)(CC1)OC/C=C/[C@H](C)Oc1ccc(F)cc1-c1cccc-3c1` had a ring closure, isolated yield in data set [1] (from C=CCOC1(C)CCN(c2c([C@H](OC(C)(C)C)C(=O)OCC)c(C)nc3cc(-c4cccc(-c5cc(F)ccc5O[C@@H](C)C=C)c4)nn23)CC1, 19-membered ring, Grubbs II (0.1 eq)/CuI, DCE, 1.36 mM, 2.0 h) of 67.3%.
On to `CCOC(=O)[C@@H](OC(C)(C)C)c1c(C)nc2cc3nn2c1N1CCC(C)(CC1)OCC=CC[C@H](C)Oc1ccc(C(=O)OC)cc1-c1cccc-3c1`, for which the ring closure, isolated yield in data set [1] (from C=CCOC1(C)CCN(c2c([C@H](OC(C)(C)C)C(=O)OCC)c(C)nc3cc(-c4cccc(-c5cc(C(=O)OC)ccc5O[C@@H](C)CC=C)c4)nn23)CC1, 20-membered ring, Hoveyda-Grubbs II (0.1 eq)/CuI, DCE, 1.52 mM, 80.0 °C, 3.0 h) stood at 83%.
On to `CCc1ccc2c(c1)-c1cccc(c1)-c1cc3nc(C)c([C@H](OC(C)(C)C)C(=O)OC)c(n3n1)N1CCC(C)(CC1)OCC=CC[C@H](C)O2`, for which the ring closure, crude yield in data set [2] came out at 92%.
Regarding `COC(=O)[C@@H](OC(C)(C)C)c1c(C)nc2cc3nn2c1N1CCC(C)(CC1)OC/C=C/C[C@H](C)Oc1cc(C)cc(F)c1-c1cccc-3c1`, in data set [1] (from C=CCOC1(C)CCN(c2c([C@H](OC(C)(C)C)C(=O)OC)c(C)nc3cc(-c4cccc(-c5c(F)cc(C)cc5O[C@@H](C)CC=C)c4)nn23)CC1, 20-membered ring, Ru-SIMes catalyst (name truncated), 3.0 h), the ring closure, isolated yield was found to be 78%.
`COC(=O)[C@@H](OC(C)(C)C)c1c(C)nc2cc3nn2c1N1CCC(C)(CC1)OCC=CC[C@H](C)Oc1cc(F)cc(F)c1-c1cccc-3c1` registered a ring closure, isolated yield in data set [1] (from C=CCOC1(C)CCN(c2c([C@H](OC(C)(C)C)C(=O)OC)c(C)nc3cc(-c4cccc(-c5c(F)cc(F)cc5O[C@@H](C)CC=C)c4)nn23)CC1, 20-membered ring, Hoveyda-Grubbs II (2 x 0.05 eq), toluene, 1.26 mM, 80.0 °C, 3.0 h) of 48%.
As a reminder, the EC50 is the midpoint of the concentration-response curve. Take `Cc1ccc2c(c1)O[C@@H](C)CCCOC1(C)CCN(CC1)c1c([C@H](OC(C)(C)C)C(=O)O)c(C)nc3cc(nn13)-c1cccc-2c1` [Example 16, (2S)-2-(tert-Butoxy)-2-[(22S)-4,18,22,27-tetramethyl-21,26-dioxa-1,5,7,8-tetraazahexacyclo[25.2.2.1^6,9.1^10,14.0^2,7.0^15,20]tritriaconta-2,4,6(33),8,10(32),11,13,15(20),16,18-decaen-3-yl]acetic acid]: in data set [3], the concentration for a half-maximal effect (EC50) is 8 nM.
Compound `Cc1cc(F)c2c(c1)O[C@@H](C)/C=C/COC1(C)CCN(CC1)c1c([C@H](OC(C)(C)C)C(=O)O)c(C)nc3cc(nn13)-c1cccc-2c1` [Example 17, (2S)-2-(tert-Butoxy)-2-[(22S,23E)-16-fluoro-4,18,22,27-tetramethyl-21,26-dioxa-1,5,7,8-tetraazahexacyclo[25.2.2.1^6,9.1^10,14.0^2,7.0^15,20]tritriaconta-2,4,6(33),8,10(32),11,13,15(20),16,18,23-undecaen-3-yl]acetic acid] had an EC50 in data set [3] of 9 nM.
In data set [3], `Cc1cc(F)c2c(c1)O[C@@H](C)CCCOC1(C)CCN(CC1)c1c([C@H](OC(C)(C)C)C(=O)O)c(C)nc3cc(nn13)-c1cccc-2c1` [Example 18, (2S)-2-(tert-Butoxy)-2-[(22S)-16-fluoro-4,18,22,27-tetramethyl-21,26-dioxa-1,5,7,8-tetraazahexacyclo[25.2.2.1^6,9.1^10,14.0^2,7.0^15,20]tritriaconta-2,4,6(33),8,10(32),11,13,15(20),16,18-decaen-3-yl]acetic acid] had an EC50 of 7 nM.
`Cc1ccc2c(c1)-c1cccc(c1)-c1cc3nc(C)c([C@H](OC(C)(C)C)C(=O)O)c(n3n1)N1CCC(C)(CC1)O/C=C\CC[C@H](C)O2` [Example 19, (2S)-2-(tert-Butoxy)-2-[(22S,25Z)-4,17,22,28-tetramethyl-21,27-dioxa-1,5,7,8-tetraazahexacyclo[26.2.2.1^6,9.1^10,14.0^2,7.0^15,20]tetratriaconta-2,4,6(34),8,10(33),11,13,15(20),16,18,25-undecaen-3-yl]acetic acid]: it took 33 nM to reach a half-maximal effect in data set [3] (EC50).
`Cc1ccc2c(c1)-c1cccc(c1)-c1cc3nc(C)c([C@H](OC(C)(C)C)C(=O)O)c(n3n1)N1CCC(C)(CCCCC[C@H](C)O2)CC1` [Example 21, (2S)-2-(tert-Butoxy)-2-[(22S)-4,17,22,28-tetramethyl-21-oxa-1,5,7,8-tetraazahexacyclo[26.2.2.1^6,9.1^10,14.0^2,7.0^15,20]tetratriaconta-2,4,6(34),8,10(33),11,13,15(20),16,18-decaen-3-yl]acetic acid] gave an EC50 in data set [3] of 150 nM.
Compound `Cc1nc2cc3nn2c(c1[C@H](OC(C)(C)C)C(=O)O)N1CCC(C)(CC1)OCCCC[C@H](C)Oc1ccc(C(=O)NCCC(C)(C)C)cc1-c1cccc-3c1` [Example 25, (2S)-2-(tert-Butoxy)-2-[(22S)-17-[(3,3-dimethylbutyl)carbamoyl]-4,22,28-trimethyl-21,27-dioxa-1,5,7,8-tetraazahexacyclo[26.2.2.1^6,9.1^10,14.0^2,7.0^15,20]tetratriaconta-2,4,6(34),8,10(33),11,13,15(20),16,18-decaen-3-yl]acetic acid] gave an EC50 in data set [3] of 4 nM.
For the compound `Cc1nc2cc3nn2c(c1[C@H](OC(C)(C)C)C(=O)O)N1CCC(C)(CC1)OCCCC[C@H](C)Oc1cc(F)ccc1-c1ccc(F)c-3c1` [Example 26, (2S)-2-(tert-Butoxy)-2-[(22S)-11,18-difluoro-4,22,28-trimethyl-21,27-dioxa-1,5,7,8-tetraazahexacyclo[26.2.2.1^6,9.1^10,14.0^2,7.0^15,20]tetratriaconta-2,4,6(34),8,10(33),11,13,15(20),16,18-decaen-3-yl]acetic acid], in data set [3], the EC50 was 49 nM.
Take `Cc1nc2cc3nn2c(c1[C@H](OC(C)(C)C)C(=O)O)N1CCC(C)(CC1)OCCCC[C@H](C)Oc1cc(F)ccc1-c1cc(F)cc-3c1` [Example 27, (2S)-2-(tert-Butoxy)-2-[(22S)-12,18-difluoro-4,22,28-trimethyl-21,27-dioxa-1,5,7,8-tetraazahexacyclo[26.2.2.1^6,9.1^10,14.0^2,7.0^15,20]tetratriaconta-2,4,6(34),8,10(33),11,13,15(20),16,18-decaen-3-yl]acetic acid]: the EC50 in data set [3] was 45 nM.
For `Cc1nc2cc3nn2c(c1[C@H](OC(C)(C)C)C(=O)O)N1CCC(C)(CC1)OCCCC[C@H](C)Oc1cc(F)ccc1-c1cc-3ccc1F` [Example 28, (2S)-2-(tert-Butoxy)-2-[(22S)-13,18-difluoro-4,22,28-trimethyl-21,27-dioxa-1,5,7,8-tetraazahexacyclo[26.2.2.1^6,9.1^10,14.0^2,7.0^15,20]tetratriaconta-2,4,6(34),8,10(33),11,13,15(20),16,18-decaen-3-yl]acetic acid], the EC50 in data set [3] is 27 nM.

These data come from US10125148B2, “Pyrazolopyrimidine macrocycles as inhibitors of human immunodeficiency virus replication” (priority 2014, dated 2018).
